Measured values taken from patent publication US11117860B2, “Phenyl urea derivatives as n-formyl peptide receptor modulators” (Allergan, Inc., priority 2016, dated 2021).

Experiments:
[1] = biological target: T1, FPR1 (Homo sapiens, UniProt P21462); assay: compound-induced calcium activity on FLIPR Tetra, CHO-Gα16 cells stably expressing FPR1; type: cell-based; details: for EC50 / FPR1 Ga16-CHO (% eff): CHO-Gα16 cells stably expressing FPR1, calcium activity; for EC50: tested at 0.61 to 10,000 nM, read-out: FPR1 Ga16-CHO EC50; for FPR1 Ga16-CHO (% eff): efficacy value in parentheses; for Ratio FPR2:FPR1 (EC50): ratio of EC50 for agonizing FPR2 to EC50 for agonizing FPR1 (selectivity for FPR1)
T1 construct: expressed in transfected cells
T1 sequence (P21462 1-350): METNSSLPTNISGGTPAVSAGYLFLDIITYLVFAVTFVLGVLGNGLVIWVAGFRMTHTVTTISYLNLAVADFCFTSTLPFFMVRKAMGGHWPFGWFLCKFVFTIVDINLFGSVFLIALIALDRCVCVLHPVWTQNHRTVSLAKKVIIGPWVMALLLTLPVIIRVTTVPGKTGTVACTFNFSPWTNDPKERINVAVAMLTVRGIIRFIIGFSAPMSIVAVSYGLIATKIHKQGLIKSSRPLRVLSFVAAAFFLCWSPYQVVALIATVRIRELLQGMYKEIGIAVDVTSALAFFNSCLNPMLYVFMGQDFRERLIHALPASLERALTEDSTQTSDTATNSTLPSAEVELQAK
Protocol: (§1) CHO-Gα16 cells stably expressing FPR1 or FPR2 were cultured in (Ham's F12 nutrient media, 10% fetal bovine serum, 1% PSA (penicillin, streptomycin, amphotericin B antiobiotic/antimycotic), 400 μg/ml geneticin and 50 μg/ml hygromycin). In general, the day before the experiment, 18,000 cells/well were plated in a 384-well clear bottom poly-D-lysine coated plate. The following day the screening compound-induced calcium activity was assayed on the FLIPR^Tetra. The drug plates were prepared in 384-well microplates using the EP3 and the MultiPROBE robotic liquid handling systems. Compounds were tested at concentrations ranging from 0.61 to 10,000 nM. Results are expressed as EC50 (nM) and efficacy values.

[2] = biological target: T2, FPR2 (Homo sapiens, UniProt P25090); assay: compound-induced calcium activity on FLIPR Tetra, CHO-Gα16 cells stably expressing FPR2; type: cell-based; parameters: FPR2 Ga16-CHO (% eff): unit not given here; details: for FPR2 Ga16-CHO (% eff): efficacy value in parentheses; for EC50: tested at 0.61 to 10,000 nM, read-out: FPR2 Ga16-CHO EC50
T2 construct: expressed in transfected cells
T2 sequence (P25090 1-351): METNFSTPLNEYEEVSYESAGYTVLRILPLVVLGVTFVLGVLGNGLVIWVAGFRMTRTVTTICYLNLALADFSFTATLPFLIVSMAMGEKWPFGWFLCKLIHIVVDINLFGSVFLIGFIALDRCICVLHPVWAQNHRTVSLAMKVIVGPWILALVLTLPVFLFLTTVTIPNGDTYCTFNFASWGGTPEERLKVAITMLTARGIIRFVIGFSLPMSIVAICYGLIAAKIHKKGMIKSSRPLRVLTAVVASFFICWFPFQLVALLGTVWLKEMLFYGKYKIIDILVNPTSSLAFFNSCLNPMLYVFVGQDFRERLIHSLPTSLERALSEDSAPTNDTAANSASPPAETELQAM
Protocol: as §1

EC50 [1] [nM]	FPR1 Ga16-CHO (% eff) [1] [%]	Ratio FPR2:FPR1 (EC50) [1]	FPR2 Ga16-CHO (% eff) [2]	EC50 [2] [nM]	SMILES
≥ 10000	66	1	0.73	≥ 10000	CC(C)CC(C(=O)OC(C)(C)C)C(C)NC(=O)Nc1ccc(Br)cc1 (single isomer, unassigned) [Compound 101, tert-butyl 2-(1-(3-(4-bromophenyl)ureido)ethyl)-4-methylpentanoate]
0.52				41	CC(C)CC(C(=O)O)C(C)NC(=O)Nc1ccc(Br)cc1 (single isomer, unassigned) [Compound 103, 2-(1-(3-(4-bromophenyl)ureido)ethyl)-4-methylpentanoic acid]
1420	80	2.6	0.75	3760	CC(C)CC(C(=O)OC(C)(C)C)C(C)NC(=O)Nc1ccc(Br)cc1 (single isomer, unassigned) [Compound 100, tert-butyl 2-(1-(3-(4-bromophenyl)ureido)ethyl)-4-methylpentanoate]
48				1050	CC(C)CC(C(=O)O)C(C)NC(=O)Nc1ccc(Br)cc1 (single isomer, unassigned) [Compound 102, 2-(1-(3-(4-bromophenyl)ureido)ethyl)-4-methylpentanoic acid]
98	91	101	0.75	9940	CC(C)CC(C(=O)O)C(C)NC(=O)Nc1ccc(Br)cc1 (single isomer, unassigned) [Compound 106, 2-(1-(3-(4-bromophenyl)ureido)ethyl)-4-methylpentanoic acid]
13	103	249	0.56	3240	CC(C)CC(C(=O)O)C(C)NC(=O)Nc1ccc(Br)cc1 (single isomer, unassigned) [Compound 105, 2-(1-(3-(4-bromophenyl)ureido)ethyl)-4-methylpentanoic acid]

The next lines start with the compound.

SMILES	EC50 [1] [nM]	FPR1 Ga16-CHO (% eff) [1] [%]	Ratio FPR2:FPR1 (EC50) [1]	FPR2 Ga16-CHO (% eff) [2]	EC50 [2] [nM]
CC(C)CC(C(=O)O)C(C)NC(=O)Nc1ccc(Br)cc1 (single isomer, unassigned) [Compound 104, 2-(1-(3-(4-bromophenyl)ureido)ethyl)-4-methylpentanoic acid]	51	94	17	0.89	855
CC(C)CC(C(=O)O)C(C)NC(=O)Nc1ccc(Br)cc1 (single isomer, unassigned) [Compound 107, 2-(1-(3-(4-bromophenyl)ureido)ethyl)-4-methylpentanoic acid]	1.7	93	15	0.96	25
CC(C)CC(C(=O)O)C(C)NC(=O)Nc1ccc(Br)cc1 (racemic) [Compound 102, 2-(1-(3-(4-bromophenyl)ureido)ethyl)-4-methylpentanoic acid]		92	22	0.63	
CC(C)CC(C(=O)O)C(C)NC(=O)Nc1ccc(Br)cc1 (racemic) [Compound 103, 2-(1-(3-(4-bromophenyl)ureido)ethyl)-4-methylpentanoic acid]		97	79	1.04	
